Among the test systems are HCC 2998; HCT-116; HCT-15; HOP-62; HT-29; LOX IMVI; MDA-MB-435; NCI-H460; NCI-H522; NCI/ADR-RES; RPMI-8226; SF-268; SK-MEL-2; SK-MEL-5; SK-OV-3; SNB-19; T47D; TK-10; U-251; UO-31.
Common to all, as to test: NCI-60 cell line screen, 48 h

Experimental findings from ChEMBL document CHEMBL1201862, “PubChem BioAssay data set” (2004) are described below.

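These data come from cells grown in 96-well plates and exposed to compound for 48 hours at five concentrations. GI50 marks 50% less growth.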 Calls of active or inactive are those of the source. Rule as the data show it: active = GI50 up to about 1.1 µM and inactive = higher.

For the compound `CCOC(=O)N1CCN(c2ccc3c(C)cc(C)nc3n2)CC1`, the GI50 in the test on HCC 2998 was > 100 µM (inactive); in the test on HCT-116, > 100 µM (inactive); in the test with HCT-15, more than 100 µM; in the test on HOP-62, > 100 µM (inactive); in the test with HT-29, > 100 µM (inactive); in the test with LOX IMVI, > 100 µM (inactive). Besides, the GI50 in the test on MDA-MB-435, with NCI-H460, in the test with NCI-H522, in the test with NCI/ADR-RES, in the test on RPMI-8226 and with SF-268 was > 100 µM (inactive) each time. The GI50 with SK-MEL-2, with SK-MEL-5, in the test with SK-OV-3, with SNB-19, in the test with T47D and in the test with TK-10 was > 100 µM (inactive) each time. The GI50 in the test on U-251 and in the test with UO-31 was > 100 µM (inactive) throughout.
